Counter-ions that a name gives are not always drawn. Like-named read-outs stand apart in the source and are kept apart here.
What was measured:
Type in all cases: cell-based
P. aeruginosa K77/WT = test: Broth Dilution Method MIC; settings: Pseudomonas aeruginosa, In Vitro
Source text: (§1) Compounds of the formula I and Ia, including their active geometric and/or optical isomers, their salts and esters and hydrates of those compounds can be used as agents to combat bacterial infections (including urinary tract infections and respiratory infections) in mammalian species, e.g., dogs, cats, horses, etc., and humans. […]. The […] activity of selected compounds of formulas I and Ia as measured by the Minimum Inhibitory Concentration in micrograms/ml utilizing the Agar Well Diffusion Method, Agar Dilution Method or Broth Dilution Method against a variety of Gram-positive and Gram-negative organisms, is as follows:
(§2) In Vitro MIC (ug/ml) Broth Dilution Method

P. aeruginosa 503-56 = test: Broth Dilution Method MIC; settings: Pseudomonas aeruginosa, 50356, In Vitro
Source text: as §1, §2

P. aeruginosa 5700 = test: Broth Dilution Method MIC; settings: Pseudomonas aeruginosa, In Vitro
Source text: as §1, §2

P. aeruginosa B = test: Broth Dilution Method MIC; settings: Pseudomonas aeruginosa
Source text: as §1, §2

P. aeruginosa Stone 130 [1] = test: Broth Dilution Method MIC; settings: Pseudomonas aeruginosa, STONE130, In Vitro
Source text: as §1, §2

P. aeruginosa 8780 = test: Broth Dilution Method MIC; settings: Pseudomonas aeruginosa, In Vitro
Source text: as §1, §2

P. aeruginosa 1973E = test: Broth Dilution Method MIC; settings: Pseudomonas aeruginosa, In Vitro
Source text: as §1, §2

P. aeruginosa 185/H [2] = test: Broth Dilution Method MIC; settings: Pseudomonas aeruginosa, In Vitro
Source text: as §1, §2

P. aeruginosa 6148B = test: Broth Dilution Method MIC; settings: Pseudomonas aeruginosa, In Vitro
Source text: as §1, §2

P. aeruginosa K77/61 = test: Broth Dilution Method MIC; settings: Pseudomonas aeruginosa
Source text: as §1, §2

P. aeruginosa ATCC 27853 = test: Broth Dilution Method MIC; settings: Pseudomonas aeruginosa, ATCC27853, In Vitro
Source text: as §1, §2

P. aeruginosa 765 = test: Broth Dilution Method MIC; settings: Pseudomonas aeruginosa, In Vitro
Source text: as §1, §2

P. aeruginosa 8710 = test: Broth Dilution Method MIC; settings: Pseudomonas aeruginosa
Source text: as §1, §2

E. cloacae P99 = test: Agar Dilution Method MIC; settings: Enterobacter cloacae
Source text: as §1
(§3) In Vitro MIC (ug/ml) Agar Dilution Method

P. mirabilis 190 = test: Agar Dilution Method MIC; settings: Proteus mirabilis, In Vitro
Source text: as §1, §3

S. aureus ATCC 25923 = test: Agar Dilution Method MIC; settings: Staphylococcus aureus, ATCC25923, In Vitro
Source text: as §1, §3

S. aureus 1059B = test: Agar Dilution Method MIC; settings: Staphylococcus aureus, In Vitro
Source text: as §1, §3

P. aeruginosa Stone 130 [3] = test: Agar Dilution Method MIC; settings: Pseudomonas aeruginosa, STONE130, In Vitro
Source text: as §1, §3

S. aureus 95 = test: Agar Dilution Method MIC; settings: Staphylococcus aureus, In Vitro
Source text: as §1, §3

S. aureus Smith = test: Agar Dilution Method MIC; settings: Staphylococcus aureus, In Vitro
Source text: as §1, §3

P. aeruginosa 185/H [4] = test: Agar Dilution Method MIC; settings: Pseudomonas aeruginosa, In Vitro
Source text: as §1, §3

P. vulgaris ATCC 6380 = test: Agar Dilution Method MIC; settings: Proteus vulgaris, ATCC6380, In Vitro
Source text: as §1, §3

S. aureus Giorgid = test: Agar Dilution Method MIC; settings: Staphylococcus aureus, In Vitro
Source text: as §1, §3

P. aeruginosa 130 = test: Agar Dilution Method MIC; settings: Pseudomonas aeruginosa, In Vitro
Source text: as §1, §3

S. marscescens SM = test: Agar Dilution Method MIC; settings: In Vitro
Source text: as §1, §3

E. cloacae 9570A = test: Agar Dilution Method MIC; settings: Enterobacter cloacae, In Vitro
Source text: as §1, §3

[5] = In Vitro, Broth Dilution, P. aeruginosa B, read-out: MIC

| SMILES | MIC (P. aeruginosa K77/WT) | MIC (P. aeruginosa 503-56) | MIC (P. aeruginosa 5700) | MIC (P. aeruginosa B; [5]) | MIC (P. aeruginosa Stone 130 [1]) | MIC (P. aeruginosa 8780) | MIC (P. aeruginosa 1973E) | MIC (P. aeruginosa 185/H [2]) | MIC (P. aeruginosa 6148B) | MIC (P. aeruginosa K77/61) | MIC (P. aeruginosa ATCC 27853) | MIC (P. aeruginosa 765) | MIC (P. aeruginosa 8710; 8710) | other results |
| --- | --- | --- | --- | --- | --- | --- | --- | --- | --- | --- | --- | --- | --- | --- |
| CCN1CCN(C(=O)N[C@@H](C(=O)N[C@@H]2C(=O)N3C(C(=O)O)=C(COC(=O)c4ccc(O)c(O)c4)CS[C@H]23)c2ccccc2)C(=O)C1=O [Compound D, [6R-[6 alpha,7 beta(R*)]]-7-[[[[(4-ethyl-2,4-dioxo-1-piperazinyl)carbonyl]amino]phenyl-acetyl]amino-3-[[(3,4-dihydroxy)benzoyl]oxy]-methyl]-8-oxo-5-thia-1-azabicyclo[4.2.0.]-oct-2-ene-2-carboxylic acid monosodium salt] | 0.25 µg/mL | 4 µg/mL | 4 µg/mL | 0.25 µg/mL | 0.5 µg/mL | 0.016 µg/mL | 4 µg/mL | 0.125 µg/mL | 0.125 µg/mL | 0.016 µg/mL | 0.5 µg/mL | 128 µg/mL | 0.125 µg/mL | – |
| CON=C(C(=O)NC1C(=O)N2C(C(=O)O)=C(COC(=O)c3ccc(O)c(O)c3)CSC12)c1csc(N)n1 (stereo not drawn) [Compound A, [6R-[6 alpha,7 beta(Z)]]-7-[[2-amino-4-thiazolyl)(methoxyimino)acetyl]amino]-3-[[[(3,4-dihydroxyphenyl)carbonyl]oxy]methyl]-8-oxo-5-thia-1-azabicyclo[4.2.0]oct-2-ene-2-carboxylic acid monosodium salt] | 1 µg/mL | 4 µg/mL | 8 µg/mL | 2 µg/mL | 2 µg/mL | 0.5 µg/mL | 4 µg/mL | 0.016 µg/mL | 2 µg/mL | 0.25 µg/mL | 8 µg/mL | 4 µg/mL | – | MIC (P. aeruginosa 8710; In Vitro, Broth Dilution, P. aeruginosa 8710, read-out: MIC): 2 µg/mL |
| CC(=O)Oc1ccc(C(=O)OCC2=C(C(=O)O)N3C(=O)C(NC(=O)C(=NOCC(N)=O)c4csc(N)n4)C3SC2)cc1OC(C)=O (stereo not drawn) [Compound B, [6R-[alpha,7 beta(Z)]]-3-[[[3,4-bis(acetyloxy)benzoyl]oxy]methyl]-7-[[[2-amino-4-thiazolyl][(2-amino-2-oxoethoxy)imino]acetyl]amino]-8-oxo-5-thia-1-azabicyclo[4.2.0]oct-2-ene-2-carboxylic acid monosodium salt] | – | – | – | – | – | – | – | – | – | – | – | – | – | MIC (E. cloacae P99): 32 µg/mL; MIC (P. mirabilis 190): 0.063 µg/mL; MIC (S. aureus ATCC 25923): 2 µg/mL; MIC (S. aureus 1059B): 4 µg/mL; MIC (P. aeruginosa Stone 130 [3]): 4 µg/mL; MIC (S. aureus 95): 64 µg/mL; MIC (S. aureus Smith): 4 µg/mL; MIC (P. aeruginosa 185/H [4]): 2 µg/mL; MIC (P. vulgaris ATCC 6380): 0.016 µg/mL; MIC (S. aureus Giorgid): 8 µg/mL; MIC (P. aeruginosa 130): 4 µg/mL; MIC (S. marscescens SM): 1 µg/mL; MIC (E. cloacae 9570A): 1 µg/mL |
| CC(C)(ON=C(C(=O)NC1C(=O)N2C(C(=O)O)=C(COC(=O)c3ccc(O)c(O)c3)CSC12)c1csc(N)n1)C(=O)O (stereo not drawn) [Compound C, [6R-[6 alpha,7 beta(Z)]]-7-[[(2-amino-4-thiazolyl)(1-carboxy-1-methylethoxy)imino]acetyl]amino]-3-[[3,4-dihydroxybenzoyl)oxy]methyl]-8-oxo-5-thia-1-azabicyclo[4.2.0]oct-2-ene-2-carboxylicacid disodium salt] | 0.63 µg/mL | 0.25 µg/mL | 2 µg/mL | – | 0.125 µg/mL | > 0.008 µg/mL | 2 µg/mL | 0.031 µg/mL | 0.031 µg/mL | > 0.008 µg/mL | 32 µg/mL | 8 µg/mL | 0.063 µg/mL | MIC (P. aeruginosa B): 0.125 µg/mL |
